Reference: BindingDB's records for patent US11814384 (Kinnate Biopharma, 2023)

What follows are compounds tested against Serine/threonine-protein kinase B-raf (Homo sapiens, UniProt P15056) (assay: Enzymatic BRAF Kinase Activity Assay).
Experimental: Small molecule inhibition of the BRAF kinases was measured using ADP-Glo assay. In the assay, […], resulting in luciferase reaction and luminescent readout with light generated proportional to the relative kinase activity. Compounds diluted in DMSO were used in 10-point, 3-fold dose curve for both assays. Final concentrations of 6 nM BRAF (CarnaBio, Cat. 09-122) or 3 nM RAF1 (CarnaBio, Cat. 09-125) and 30 nM MEK1 substrate (Millipore, Cat. 14-420) were incubated with 3 µM ATP, 10 mM MgCl2, 0.003% Brij-35, 2 mM DTT, 0.05% BSA, 1 mM EGTA, and 50 mM HEPES for 90 minutes at room temp prior to addition of ADP-Glo reagent (Promega, Cat. V9102) for 40 minutes, and detection reagent for 45 minutes. Luminescence was read on an Envision plate reader (PerkinElmer) and percent remaining activity was used to calculate IC50 using a four-parameter fit model using Dotmatics Knowledge Solutions Studies curve fitting (Dotmatics, Bishops Stortford, UK, CM23).

Chain of Serine/threonine-protein kinase B-raf (P15056 whole entry): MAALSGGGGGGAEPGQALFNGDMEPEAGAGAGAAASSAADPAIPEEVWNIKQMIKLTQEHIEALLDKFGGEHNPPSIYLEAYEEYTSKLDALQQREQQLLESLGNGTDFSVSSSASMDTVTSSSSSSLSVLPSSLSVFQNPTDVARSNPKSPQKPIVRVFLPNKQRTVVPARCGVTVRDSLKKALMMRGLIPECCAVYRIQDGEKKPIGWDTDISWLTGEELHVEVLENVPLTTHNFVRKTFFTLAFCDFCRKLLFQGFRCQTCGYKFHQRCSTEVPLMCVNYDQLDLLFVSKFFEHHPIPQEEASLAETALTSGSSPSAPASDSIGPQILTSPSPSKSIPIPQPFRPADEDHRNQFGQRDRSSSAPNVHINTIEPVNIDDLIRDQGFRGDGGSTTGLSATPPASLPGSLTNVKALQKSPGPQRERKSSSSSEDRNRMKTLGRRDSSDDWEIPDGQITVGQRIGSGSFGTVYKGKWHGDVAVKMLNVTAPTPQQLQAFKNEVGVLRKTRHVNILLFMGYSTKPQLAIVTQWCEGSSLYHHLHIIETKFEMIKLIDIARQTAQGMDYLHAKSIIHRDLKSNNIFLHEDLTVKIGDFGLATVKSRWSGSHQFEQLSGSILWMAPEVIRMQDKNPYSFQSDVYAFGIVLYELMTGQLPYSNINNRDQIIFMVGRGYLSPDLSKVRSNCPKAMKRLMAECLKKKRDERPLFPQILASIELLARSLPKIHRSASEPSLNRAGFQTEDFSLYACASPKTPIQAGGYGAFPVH

IC50 | Compound
in the range around 5.5 nM | Cc1cc(F)c(NC(=O)c2cnn(C(F)C(C)(C)F)c2)cc1-c1cc(N2CCOCC2)c2nccn2c1 (centres undefined) [US11814384, Example 125]
in the range around 5.5 nM | Cc1cc(F)c(C(=O)Nc2cnn(C(C)(C)C)c2)cc1-c1cc(N2CCOCC2)c2nccn2c1 [US11814384, Example 204]
in the range around 5.5 nM | Cc1cc(F)c(NC(=O)c2cnn(C34CC(C3)C4)c2)cc1-c1cc(N2CCOCC2)c2nccn2c1 [US11814384, Example 164]
in the range around 5.5 nM | Cc1cc(F)c(NC(=O)c2coc(C(C)(C)C)n2)cc1-c1cc(N2CCOCC2)c2nccn2c1 [US11814384, Example 184]
in the range around 5.5 nM | Cc1cc(F)c(NC(=O)c2cncc(C(C)(F)F)c2)cc1-c1cc(N2CCOCC2)c2nccn2c1 [US11814384, Example 84]
in the range around 5.5 nM | Cc1cc(F)c(NC(=O)N2CCC(C(C)(C)C(F)(F)F)C2)cc1-c1cc(N2CCOCC2)c2nccn2c1 (centres undefined) [US11814384, Example 74]
in the range around 5.5 nM | Cc1cc(F)c(NC(=O)c2ccnc(C34CC(C3)C4)c2)cc1-c1cc(N2CCOCC2)c2nccn2c1 [US11814384, Example 188]
in the range around 5.5 nM | Cc1ccc(NC(=O)c2ccnc(C(F)(F)F)c2)cc1-c1cc(N2CCOCC2)c2nc3c(n2c1)CCOC3 [US11814384, Example 36]
in the range around 5.5 nM | Cc1ccc(NC(=O)c2ccnc(C(F)(F)F)c2)cc1-c1cc(N2CCOCC2)c2nc3c(n2c1)COCC3 [US11814384, Example 33]
in the range around 5.5 nM | Cc1cc(F)c(NC(=O)c2ccnc3c2ccn3C(C)C)cc1-c1cc(N2CCOCC2)c2nccn2c1 [US11814384, Example 206]
in the range around 5.5 nM | Cc1ccc(NC(=O)c2nn(C(C)(C)C)cc2F)cc1-c1cc(N2CCOCC2)c2nccn2c1 [US11814384, Example 142]
in the range around 5.5 nM | Cc1cc(F)c(NC(=O)N2CC[C@@H](CC(F)(F)F)C2)cc1-c1cc(N2CCOCC2)c2nccn2c1 [US11814384, Example 17]
in the range around 5.5 nM | Cc1cc(F)c(NC(=O)[C@@H]2CCN(CC(F)(F)F)C2)cc1-c1cc(N2CCOCC2)c2nccn2c1 [US11814384, Example 46]
in the range around 5.5 nM | Cc1cc(F)c(NC(=O)c2cnn(C(C)(C)C(F)F)c2)cc1-c1cc(N2CCOCC2)c2nccn2c1 [US11814384, Example 124]
in the range around 5.5 nM | Cc1cc(F)c(NC(=O)c2cnn(C(C)(C)C)c2F)cc1-c1cc(N2CCOCC2)c2nccn2c1 [US11814384, Example 103]
in the range around 5.5 nM | Cc1cn2cc(-c3cc(NC(=O)c4cn(C(C)(C)C)cn4)c(F)cc3C)cc(N3CCOCC3)c2n1 [US11814384, Example 140]

The next lines start with the compound.

Compound | IC50
Cc1nc2cc(-c3cc(NC(=O)c4cnn(C(C)(C)C)c4F)c(F)cc3C)cc(N3CCOCC3)n2n1 [US11814384, Example 282] | in the range around 55 nM
Cc1nc2c(N3CCOCC3)cc(-c3cc(C(=O)Nc4cnn(C(C)(C)C)c4F)c(F)cc3C)cn2n1 [US11814384, Example 285] | in the range around 5.5 nM
Cc1ncc(NC(=O)c2cnn(C(C)(C)C)c2F)cc1-c1cc(N2CCOCC2)c2nccn2c1 [US11814384, Example 137] | in the range around 5.5 nM
Cc1cc(F)c(NC(=O)N2CCOC(C(C)(C)C)C2)cc1-c1cc(N2CCOCC2)c2nccn2c1 (centres undefined) [US11814384, Example 50] | in the range around 5.5 nM
Cc1cc(F)c(NC(=O)c2cnn(C(C)(C)C)c2F)cc1-c1cn2ccnc2c(N2CCOCC2)n1 [US11814384, Example 228] | in the range around 5.5 nM
Cc1cc(F)c(C(=O)Nc2cnn(C(C)(C)C)c2F)cc1-c1cc(N2CCOCC2)c2nccn2n1 [US11814384, Example 260] | in the range around 5.5 nM
Cc1cn2cc(-c3cc(NC(=O)c4cnn(C(C)(C)C)c4F)c(F)cc3C)cc(N3CCOCC3)c2n1 [US11814384, Example 143] | in the range around 5.5 nM
Cc1cc(F)c(NC(=O)c2cn(C(C)(C)C)cn2)cc1-c1cc(N2CCOCC2)c2nccn2c1 [US11814384, Example 67] | in the range around 5.5 nM
Cc1nc2cc(-c3cc(NC(=O)c4cnc(C(C)(C)C)o4)c(F)cc3C)cc(N3CCOCC3)n2n1 [US11814384, Example 291] | in the range around 55 nM
Cc1cc(F)c(NC(=O)c2nn(C(C)(C)C)cc2F)cc1-c1cc(N2CCOCC2)c2nccn2c1 [US11814384, Example 141] | in the range around 5.5 nM
Cc1cnc(NC(=O)c2cnn(C(C)(C)C)c2F)cc1-c1cc(N2CCOCC2)c2nccn2c1 [US11814384, Example 138] | in the range around 5.5 nM
Cc1nc2cc(-c3cc(C(=O)Nc4cnn(C(C)(C)C)c4F)c(F)cc3C)cc(N3CCOCC3)n2n1 [US11814384, Example 283] | in the range around 5.5 nM
Cc1cc(F)c(NC(=O)N2CC(F)C(C(C)C)C2)cc1-c1cc(N2CCOCC2)c2nccn2c1 (centres undefined) [US11814384, Example 119] | in the range around 5.5 nM
CC(C)(C)n1cc(C(=O)Nc2cc(-c3cc(N4CCOCC4)c4nccn4c3)c(Cl)cc2F)nc1F [US11814384, Example 151] | in the range around 5.5 nM
Cc1cc(F)c(NC(=O)c2ncn(C(C)(C)C)c2F)cc1-c1cc(N2CCOCC2)c2nccn2c1 [US11814384, Example 160] | in the range around 5.5 nM
Cc1cc(F)c(N)cc1-c1cc(N2CCOCC2)c2nccn2c1 [US11814384, Example 112] | in the range around 55 nM
Cc1ccc(NC(=O)N2CC[C@@H](CC(F)(F)F)C2)cc1-c1cc(N2CC3CCC(C2)O3)c2nccn2c1 [US11814384, Example 38] | in the range around 5.5 nM
Cc1nc2c(N3CCOCC3)cc(-c3cc(NC(=O)c4cnc(C(C)(C)C)o4)c(F)cc3C)cn2n1 [US11814384, Example 293] | in the range around 5.5 nM
